{"source": "patent US5604219A", "about": "“Indolocarbazole derivatives that stimulate platelet production” (Kyowa Hakko Kogyo Co., Ltd., priority 1994, dated 1997)", "key": {"[1]": {"system": "platelets", "experiment": "Platelet production-stimulating activity in mice (Test Example 2)", "assay_type": "in vivo, male BALB/c mice", "details": "intraperitoneal, once a day for 5 days, platelets counted on day 15, A test group, B control group", "from_the_text": "A test compound was intraperitoneally administered to four 7-week-old male BALB/c mice per group once a day for consecutive 5 days (day 1 to day 5). A control group (4 mice per group) received only the solvent (5% Tween water). The blood was collected from the fundus oculi vein of each animal on the 15th day from the start of administration (day 15), and the number of the platelets was counted with a microcell counter (Model CC-180A, manufactured by Toa Iryo Denshi Co.). The rate of increase of the number of platelets in the test group (average) over the control (average) was calculated according to the following formula to evaluate the effect of the test compound.\nRate of Increase = A/B × 100\nA: the number of platelets in test group\nB: the number of platelets in control group"}, "[2]": {"system": "bone marrow cells (megakaryocyte colony formation)", "experiment": "Megakaryocyte colony formation-stimulating activity (Test Example 1)", "assay_type": "cell-based, BALB/c mouse", "details": "with IL-3 (100 U/ml), 7 days, control (IL-3 alone) defined as 100", "description": "An eight-weeks-old BALB/c mouse was killed. Its femurs and cervical vertebrae were taken out, and both end sections thereof were cut off. Bone marrow cells were collected from the pieces cut off from the femurs and cervical vertebrae using a syringe containing IMDM (430-2200EA prepared by Gibco Co.), and then blown into a test tube. The test tube was allowed to stand for 5 minutes, and the supernatant was collected with a piper. To a reaction mixture comprising the bone marrow cells (50,000 cells), bovine serum albumin (2%: A4508 made by Sigma Co.), transferrin (600 μg/ml: 652202 made by Boehringer Mannheim Co.), IL-3 (100 U/ml), cholesterol (16 μg/ml: 036-0641 made by Wako Co.) and agar (0.6%: 0142-02 made by Difco Laboratories) were separately added the test compounds at various concentrations, and 1 ml each of the mixtures was put into a 35-mm dish (Lux Co.), followed by incubation under the conditions of 37° C. 5% CO2 and a humidity of 95% or more for 7 days. Separately, IL-3 alone was added to the bone marrow cells to prepare a control. After the incubation was completed, the agar was dried over a filter paper (1001-055 made by Whatman Co.) and then fixed with 2.5% glutaraldehyde, followed by acetylcholinesterase staining (ACHE staining).\nThe ACHE staining was carried out by the method described below.\nACHE staining: To each sample was added a solution comprising 0.67 mg/ml acetylthiocholine iodide, 2.94 mg/ml sodium citrate, 7.5 mg/ml copper (II) sulfate and 1.65 mg/ml potassium ferricyanide, and the mixture was allowed to stand at room temperature in the dark for 4-6 hours.\nA group of 4 or more megakaryocytes which were stained reddish brown was regarded as a colony, and the number of colonies per dish was calculated using a microscope. The results are shown in Table 2 as relative values to the control."}}}
{"smiles": "CN[C@@H]1C[C@H]2O[C@@](C)([C@@H]1OC)n1c3ccccc3c3c4c(c5c6cc(C=NN(C)C)ccc6n2c5c31)C(=O)N(C)C4", "note": "[Compound 28]", "values": [{"measurement": "Rate of increase (number of platelets, A/B × 100)", "setting": "[1]; 12.5 mg/kg", "value": 156, "unit": "%"}, {"measurement": "Rel. Value (number of megakaryocyte colonies per dish, relative to control)", "setting": "[2]; Concn. 1 nM", "value": 134}]}
{"smiles": "CN[C@@H]1C[C@H]2O[C@@](C)([C@@H]1OC)n1c3ccccc3c3c4c(c5c6cc(C)ccc6n2c5c31)C(=O)N(C)C4", "note": "[Compound 8]", "values": [{"measurement": "Rate of increase (number of platelets, A/B × 100)", "setting": "[1]; 25 mg/kg", "value": 134, "unit": "%"}, {"measurement": "Rel. Value (number of megakaryocyte colonies per dish, relative to control)", "setting": "[2]; Concn. 10 nM", "value": 157}]}
{"smiles": "CN[C@@H]1C[C@H]2O[C@@](C)([C@@H]1OC)n1c3ccccc3c3c4c(c5c6cc(CSCCN(C)C)ccc6n2c5c31)C(=O)N(C)C4", "note": "[Compound 30]", "values": [{"measurement": "Rel. Value (number of megakaryocyte colonies per dish, relative to control)", "setting": "[2]; Concn. 1 nM", "value": 116}]}
{"smiles": "CN[C@@H]1C[C@H]2O[C@@](C)([C@@H]1OC)n1c3ccccc3c3c4c(c5c6ccccc6n2c5c31)C(=O)N(CO)C4", "note": "[Compound 1]", "values": [{"measurement": "Rel. Value (number of megakaryocyte colonies per dish, relative to control)", "setting": "[2]; Concn. 1 nM", "value": 129}]}
{"smiles": "CN[C@@H]1C[C@H]2O[C@@](C)([C@@H]1OC)n1c3ccc(OC(=O)C(C)(C)C)cc3c3c4c(c5c6cc(OC(=O)C(C)(C)C)ccc6n2c5c31)C(=O)N(C)C4", "note": "[Compound 22]", "values": [{"measurement": "Rate of increase (number of platelets, A/B × 100)", "setting": "[1]; 50 mg/kg", "value": 168, "unit": "%"}]}
{"smiles": "CN[C@@H]1C[C@H]2O[C@@](C)([C@@H]1OC)n1c3ccc(N)cc3c3c4c(c5c6cc(N)ccc6n2c5c31)C(=O)N(C)C4", "note": "[Compound 16]", "values": [{"measurement": "Rel. Value (number of megakaryocyte colonies per dish, relative to control)", "setting": "[2]; Concn. 1 nM", "value": 125}]}
{"smiles": "CN[C@@H]1C[C@H]2O[C@@](C)([C@@H]1OC)n1c3ccccc3c3c4c(c5c6cc(N)ccc6n2c5c31)C(=O)N(C)C4", "note": "[Compound 12]", "values": [{"measurement": "Rel. Value (number of megakaryocyte colonies per dish, relative to control)", "setting": "[2]; Concn. 10 nM", "value": 126}]}
